Source: the kinase profiling compilation of Christmann-Franck et al. (2016)

Columns and labels:
Assay in all cases: KINOMEscan competition binding
BMX (human) = BMX (human) (UniProt P51813)
CDC42BPG (human) = CDC42BPG (human) (UniProt Q6DT37)
CDK11B (human) = CDK11B (human) (UniProt P21127)
CDK14 (human) = CDK14 (human) (UniProt O94921)
CDK19 (human) = CDK19 (human) (UniProt Q9BWU1)
CDK3 (human) = CDK3 (human) (UniProt Q00526)
CDKL3 (human) = CDKL3 (human) (UniProt Q8IVW4)
CHUK (human) = CHUK (human) (UniProt O15111)
CSF1R (human) = CSF1R (human) (UniProt P07333)
CSNK1D (human) = CSNK1D (human) (UniProt P48730)
CSNK1E (human) = CSNK1E (human) (UniProt P49674)
CSNK1G1 (human) = CSNK1G1 (human) (UniProt Q9HCP0)
DYRK1A (human) = DYRK1A (human) (UniProt Q13627)
EPHB6 (human) = EPHB6 (human) (UniProt O15197)
FGFR1 (human) = FGFR1 (human) (UniProt P11362)
FGFR2 (human) = FGFR2 (human) (UniProt P21802)
FGFR3 (human) = FGFR3 (human) (UniProt P22607)
[1] = molecular target: FLT3 (human), P36888 [ITD]
FRK (human) = FRK (human) (UniProt P42685)
MAP2K3 (human) = MAP2K3 (human) (UniProt P46734)
MAP3K2 (human) = MAP3K2 (human) (UniProt Q9Y2U5)
MAP3K9 (human) = MAP3K9 (human) (UniProt P80192)
MINK1 (human) = MINK1 (human) (UniProt Q8N4C8)
MUSK (human) = MUSK (human) (UniProt O15146)
NTRK2 (human) = NTRK2 (human) (UniProt Q16620)
PAK2 (human) = PAK2 (human) (UniProt Q13177)
Chain of PAK2 (human) (Q13177 whole entry, looked up): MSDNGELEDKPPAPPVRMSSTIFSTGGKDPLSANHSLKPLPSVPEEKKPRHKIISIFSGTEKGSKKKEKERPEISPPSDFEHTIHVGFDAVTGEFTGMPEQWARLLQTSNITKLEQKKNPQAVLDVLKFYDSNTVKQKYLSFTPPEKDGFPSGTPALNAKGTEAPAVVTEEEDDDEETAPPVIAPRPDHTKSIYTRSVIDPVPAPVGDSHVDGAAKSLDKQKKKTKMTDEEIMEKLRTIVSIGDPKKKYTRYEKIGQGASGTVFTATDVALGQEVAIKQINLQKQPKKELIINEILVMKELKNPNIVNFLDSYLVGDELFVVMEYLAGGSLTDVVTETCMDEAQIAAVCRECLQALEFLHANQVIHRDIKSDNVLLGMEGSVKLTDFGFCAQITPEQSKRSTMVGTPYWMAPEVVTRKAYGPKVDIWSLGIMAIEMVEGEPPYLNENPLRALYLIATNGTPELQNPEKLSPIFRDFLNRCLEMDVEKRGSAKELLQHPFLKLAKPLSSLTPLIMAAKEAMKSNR

PIK3CA (human) = PIK3CA (human) (UniProt P42336)
Chain of PIK3CA (human) (P42336 whole entry, looked up): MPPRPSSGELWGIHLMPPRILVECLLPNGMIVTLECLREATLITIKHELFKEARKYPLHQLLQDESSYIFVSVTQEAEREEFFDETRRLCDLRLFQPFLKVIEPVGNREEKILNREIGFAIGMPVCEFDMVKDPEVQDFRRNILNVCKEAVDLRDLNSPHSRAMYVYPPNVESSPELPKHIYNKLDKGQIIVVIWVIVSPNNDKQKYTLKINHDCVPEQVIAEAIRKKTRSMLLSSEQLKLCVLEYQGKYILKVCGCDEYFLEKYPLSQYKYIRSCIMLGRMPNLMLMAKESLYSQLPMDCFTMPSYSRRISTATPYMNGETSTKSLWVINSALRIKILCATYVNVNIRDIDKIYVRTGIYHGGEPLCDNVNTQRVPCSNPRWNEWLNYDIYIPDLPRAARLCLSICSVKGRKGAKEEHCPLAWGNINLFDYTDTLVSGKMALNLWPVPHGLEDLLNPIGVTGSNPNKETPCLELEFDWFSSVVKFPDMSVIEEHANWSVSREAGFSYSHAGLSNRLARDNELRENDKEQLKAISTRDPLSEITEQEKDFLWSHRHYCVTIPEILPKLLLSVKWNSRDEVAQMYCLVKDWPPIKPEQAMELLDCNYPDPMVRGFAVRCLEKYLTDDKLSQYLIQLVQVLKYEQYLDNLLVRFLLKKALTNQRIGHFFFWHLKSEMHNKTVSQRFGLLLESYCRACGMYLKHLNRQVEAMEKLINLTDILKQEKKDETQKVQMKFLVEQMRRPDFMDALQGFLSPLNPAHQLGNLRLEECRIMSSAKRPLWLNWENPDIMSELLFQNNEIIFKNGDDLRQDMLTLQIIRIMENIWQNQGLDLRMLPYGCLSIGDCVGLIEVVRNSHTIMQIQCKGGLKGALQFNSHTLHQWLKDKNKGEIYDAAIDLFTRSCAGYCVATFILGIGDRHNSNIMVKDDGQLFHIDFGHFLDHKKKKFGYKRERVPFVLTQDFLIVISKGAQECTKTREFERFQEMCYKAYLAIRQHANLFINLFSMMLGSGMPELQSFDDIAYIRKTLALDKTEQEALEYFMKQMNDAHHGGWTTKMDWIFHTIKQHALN

[2] = molecular target: PIK3CA (human), P42336 [E545K]
Chain of PIK3CA (human), P42336 [E545K] (P42336 whole entry E545K, looked up): as the sequence (P42336 whole entry, looked up) above, with E545K counted along it

PIM3 (human) = PIM3 (human) (UniProt Q86V86)
RAF1 (human) = RAF1 (human) (UniProt P04049)
RIPK4 (human) = RIPK4 (human) (UniProt P57078)
Chain of RIPK4 (human) (P57078 whole entry, looked up): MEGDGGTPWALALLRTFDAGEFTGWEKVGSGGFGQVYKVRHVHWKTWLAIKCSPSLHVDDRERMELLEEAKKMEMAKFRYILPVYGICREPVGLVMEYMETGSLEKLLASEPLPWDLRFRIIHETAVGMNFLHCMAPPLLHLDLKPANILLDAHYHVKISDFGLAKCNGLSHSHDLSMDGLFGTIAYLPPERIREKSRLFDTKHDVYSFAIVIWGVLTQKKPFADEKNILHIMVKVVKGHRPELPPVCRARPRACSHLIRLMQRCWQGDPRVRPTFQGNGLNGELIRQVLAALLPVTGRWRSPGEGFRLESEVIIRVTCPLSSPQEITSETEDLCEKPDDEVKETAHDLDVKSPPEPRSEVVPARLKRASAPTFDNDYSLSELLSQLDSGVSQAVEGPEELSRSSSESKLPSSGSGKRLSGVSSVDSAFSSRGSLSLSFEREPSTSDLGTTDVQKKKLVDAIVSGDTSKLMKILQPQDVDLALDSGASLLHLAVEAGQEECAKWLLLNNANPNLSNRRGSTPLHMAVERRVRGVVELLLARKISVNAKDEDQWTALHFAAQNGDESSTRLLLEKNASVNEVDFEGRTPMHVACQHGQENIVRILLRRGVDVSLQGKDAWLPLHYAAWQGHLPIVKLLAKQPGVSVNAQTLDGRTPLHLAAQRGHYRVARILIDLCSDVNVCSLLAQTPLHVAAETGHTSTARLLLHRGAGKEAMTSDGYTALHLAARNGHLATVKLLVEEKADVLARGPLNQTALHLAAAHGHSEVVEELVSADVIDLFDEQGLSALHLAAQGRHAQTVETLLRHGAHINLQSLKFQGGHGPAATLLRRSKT

SIK1 (human) = SIK1 (human) (UniProt P57059)
STK33 (human) = STK33 (human) (UniProt Q9BYT3)
STK36 (human) = STK36 (human) (UniProt Q9NRP7)
STK4 (human) = STK4 (human) (UniProt Q13043)
TAOK2 (human) = TAOK2 (human) (UniProt Q9UL54)
TAOK3 (human) = TAOK3 (human) (UniProt Q9H2K8)
TNK2 (human) = TNK2 (human) (UniProt Q07912)
TNNI3K (human) = TNNI3K (human) (UniProt Q59H18)
TTK (human) = TTK (human) (UniProt P33981)
TYRO3 (human) = TYRO3 (human) (UniProt Q06418)

Chain of CDC42BPG (human) (Q6DT37 whole entry, looked up): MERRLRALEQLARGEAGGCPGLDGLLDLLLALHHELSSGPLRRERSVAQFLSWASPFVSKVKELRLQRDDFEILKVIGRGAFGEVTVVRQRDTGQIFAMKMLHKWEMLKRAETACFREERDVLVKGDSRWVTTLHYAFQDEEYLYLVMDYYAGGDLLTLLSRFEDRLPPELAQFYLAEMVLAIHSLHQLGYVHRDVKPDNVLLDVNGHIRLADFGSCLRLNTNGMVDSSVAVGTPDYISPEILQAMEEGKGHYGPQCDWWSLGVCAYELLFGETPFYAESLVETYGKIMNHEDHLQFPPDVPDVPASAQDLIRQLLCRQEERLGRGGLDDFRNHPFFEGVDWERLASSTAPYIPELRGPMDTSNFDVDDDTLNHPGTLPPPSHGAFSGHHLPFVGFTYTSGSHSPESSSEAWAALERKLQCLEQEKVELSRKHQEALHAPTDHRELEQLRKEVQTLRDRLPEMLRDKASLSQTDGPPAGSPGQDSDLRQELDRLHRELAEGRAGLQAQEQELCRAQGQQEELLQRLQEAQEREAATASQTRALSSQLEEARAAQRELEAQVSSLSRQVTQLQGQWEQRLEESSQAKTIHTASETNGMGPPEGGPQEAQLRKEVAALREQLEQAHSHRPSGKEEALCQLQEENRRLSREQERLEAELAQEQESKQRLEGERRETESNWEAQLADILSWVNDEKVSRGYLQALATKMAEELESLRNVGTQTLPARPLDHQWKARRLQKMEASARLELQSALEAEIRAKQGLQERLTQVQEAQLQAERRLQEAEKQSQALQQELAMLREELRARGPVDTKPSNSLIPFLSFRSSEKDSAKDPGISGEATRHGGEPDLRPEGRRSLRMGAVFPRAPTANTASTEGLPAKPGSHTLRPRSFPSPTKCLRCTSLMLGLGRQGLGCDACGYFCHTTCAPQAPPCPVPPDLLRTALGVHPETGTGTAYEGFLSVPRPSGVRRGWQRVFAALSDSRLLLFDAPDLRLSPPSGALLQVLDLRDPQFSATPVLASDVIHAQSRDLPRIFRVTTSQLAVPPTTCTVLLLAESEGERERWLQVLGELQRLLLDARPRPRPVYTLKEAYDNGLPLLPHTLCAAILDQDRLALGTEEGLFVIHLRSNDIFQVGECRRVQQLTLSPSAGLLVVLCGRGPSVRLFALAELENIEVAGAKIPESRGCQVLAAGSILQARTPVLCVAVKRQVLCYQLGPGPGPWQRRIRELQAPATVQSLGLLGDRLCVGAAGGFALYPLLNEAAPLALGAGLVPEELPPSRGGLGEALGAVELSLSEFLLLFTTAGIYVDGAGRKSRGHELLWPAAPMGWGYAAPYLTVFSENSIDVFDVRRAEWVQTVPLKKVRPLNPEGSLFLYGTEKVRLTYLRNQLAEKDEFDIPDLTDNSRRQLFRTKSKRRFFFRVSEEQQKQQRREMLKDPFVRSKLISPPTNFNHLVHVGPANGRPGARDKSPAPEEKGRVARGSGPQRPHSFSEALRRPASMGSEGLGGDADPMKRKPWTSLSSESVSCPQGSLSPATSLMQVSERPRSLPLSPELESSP
Chain of CDK11B (human) (P21127 whole entry, looked up): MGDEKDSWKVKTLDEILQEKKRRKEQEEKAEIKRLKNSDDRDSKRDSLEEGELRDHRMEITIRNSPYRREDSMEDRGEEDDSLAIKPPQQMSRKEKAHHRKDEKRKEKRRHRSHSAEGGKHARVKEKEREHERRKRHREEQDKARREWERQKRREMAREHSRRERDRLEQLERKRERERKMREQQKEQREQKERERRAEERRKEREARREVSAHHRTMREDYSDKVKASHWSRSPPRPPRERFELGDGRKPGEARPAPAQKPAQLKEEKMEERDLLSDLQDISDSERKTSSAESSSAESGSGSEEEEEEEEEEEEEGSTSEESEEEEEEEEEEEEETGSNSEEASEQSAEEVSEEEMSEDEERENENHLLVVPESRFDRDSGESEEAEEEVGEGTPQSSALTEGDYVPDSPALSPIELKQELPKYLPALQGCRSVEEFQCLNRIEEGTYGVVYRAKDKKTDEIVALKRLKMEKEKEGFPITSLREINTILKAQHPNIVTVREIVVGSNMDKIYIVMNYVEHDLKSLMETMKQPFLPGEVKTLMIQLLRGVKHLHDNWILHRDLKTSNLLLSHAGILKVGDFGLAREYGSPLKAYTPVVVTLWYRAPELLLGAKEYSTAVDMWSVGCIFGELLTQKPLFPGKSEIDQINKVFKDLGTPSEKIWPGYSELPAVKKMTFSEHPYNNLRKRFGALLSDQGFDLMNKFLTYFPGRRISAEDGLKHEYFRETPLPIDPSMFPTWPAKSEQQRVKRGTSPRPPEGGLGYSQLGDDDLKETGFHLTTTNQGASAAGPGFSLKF

Kd (BMX (human)): 820 nM | Kd (CDC42BPG (human)): 4400 nM | Kd (CDK11B (human)): 270 nM | Kd (CDK14 (human)): 110 nM | Kd (CDK19 (human)): 940 nM | Kd (CDK3 (human)): 26000 nM | Kd (CDKL3 (human)): 2000 nM | Kd (CHUK (human)): 170 nM | Kd (CSF1R (human)): 8.6 nM | Kd (CSNK1D (human)): 13000 nM | Kd (CSNK1E (human)): 16000 nM | Kd (CSNK1G1 (human)): 36000 nM | Kd (DYRK1A (human)): 35000 nM | Kd (EPHB6 (human)): 92 nM | Kd (FGFR1 (human)): 840 nM | Kd (FGFR2 (human)): 3000 nM | Kd (FGFR3 (human)): 3300 nM | Kd [1]: 22 nM | Kd (FRK (human)): 9.6 nM | Kd (MAP2K3 (human)): 31000 nM | Kd (MAP3K2 (human)): 13000 nM | Kd (MAP3K9 (human)): 1500 nM | Kd (MINK1 (human)): 360 nM | Kd (MUSK (human)): 34 nM | Kd (NTRK2 (human)): 1000 nM | Kd (PAK2 (human)): 34000 nM | Kd (PIK3CA (human)): 27000 nM | Kd [2]: 29000 nM | Kd (PIM3 (human)): 13000 nM | Kd (RAF1 (human)): 39 nM | Kd (RIPK4 (human)): 16000 nM | Kd (SIK1 (human)): 1800 nM | Kd (STK33 (human)): 18000 nM | Kd (STK36 (human)): 4700 nM | Kd (STK4 (human)): 30000 nM | Kd (TAOK2 (human)): 1600 nM | Kd (TAOK3 (human)): 1600 nM | Kd (TNK2 (human)): 8700 nM | Kd (TNNI3K (human)): 28 nM | Kd (TTK (human)): 1700 nM | Kd (TYRO3 (human)): 1500 nM
Structure (SMILES): COc1cc2ncnc(Oc3cccc(NC(=O)Nc4cc(C(C)(C)C(F)(F)F)on4)c3)c2cc1OC
